Molecular target: GABAA receptor complex (GRC)
Assay: [35S]TBPS binding assay (In Vitro Binding Assay 1)
Conditions: rat cortex P2 homogenate; 2 nM [35S]TBPS; 90 min at 25° C.
Experimental: [^35S]TBPS binding assay. The cortex from male Sprague-Dawley rats (weighing 160-200 g) was removed immediately after decapitation and dissected over ice. A P2 homogenate was prepared for binding assay as previously described (Gee, Mol. Pharmacol. 30: 218-225, 1986.). The tissue was homogenized in 0.32 M sucrose (J. T. Baker Chemical Co., Phillipsburg, N.J., USA) with a Teflon-coated pestle, followed by centrifugation at 1,000×g for 10 min. The supernatant was collected and centrifuged at 9,000×g for 20 min. The resultant P2 pellet was resuspended in ice-cold 50 mM sodium potassium phosphate (J. T. Baker) buffer (pH 7.4) containing 200 mM NaCl (J. T. Baker) and used immediately in binding assays. A 2 nM concentration of [^35S]TBPS (86 Ci/mmol; New England Nuclear, Boston, Mass., USA) was incubated with 100 μl of tissue homogenate (10% w/v) in the presence or absence of 5 μM GABA (Sigma Chem. Co., St. Louis, Mo.) and 5 μl aliquots of test drug dissolved in dimethyl sulfoxide (Sigma Chem. Co.) (≦10 μl of solvent used in all assays). At the concentration (≦1%) used, dimethyl sulfoxide had no effect on specific [^35S]TBPS binding. All assays were brought to a final volume of 1 ml with 50 mM sodium potassium phosphate buffer (pH 7.4) containing 200 mM NaCl. Non-specific binding was defined as binding in the presence of 2 μM TBPS (NEN, Boston, Mass.) and accounted for ˜30% of the total binding. Assays were terminated after a 90-min steady-state incubation at 25° C. by rapid filtration through glass fiber filters (no. 32; Schleicher & Schuell, Keene, N.H.). Filter-bound radioactivity was quantified by liquid scintillation spectrophotometry. The data were evaluated by nonlinear regression (GraphPad, Inc., San Diego, Calif.) to obtain IC50 (concentration at which half-maximal inhibition of radioligand occurs) values.

Row | IC50 [nM] | Imax (inhibition of [^35S]TBPS binding) [%] | SMILES
1 | 100 | 100 | CCCNC(=O)C(=CNc1ccc(C)cc1)C(=O)c1ccccc1C [2-methyl-α-[[(4-methylphenyl)amino]methylene]-β-oxo-N-propyl-benzenepropanamide]
2 | 420 | 100 | CCOC(=O)C(=CNc1ccccc1Cl)C(=O)c1ccccc1Cl [ethyl 2-chloro-α-[[(2-chlorophenyl)-amino]methylene]-β-oxobenzenepropionate]
3 | 60 | 100 | CCOC(=O)C(=CNc1ccc(C#N)cc1)C(=O)c1ccccc1Cl [ethyl 2-chloro-α-[[(4-cyanophenyl)-amino]methylene]-β-oxobenzenepropionate]
4 | 10 | 95 | C#Cc1ccc(NC=C(C(=O)OCC)C(=O)c2ccccc2Cl)cc1 [ethyl 2-chloro-α-[[(4-ethynylphenyl)-amino]methylene]-β-oxobenzenepropionate]
5 | 20 | 86 | CCOC(=O)C(=CNc1ccc(I)cc1)C(=O)c1ccccc1Cl [ethyl 2-chloro-α-[[(4-iodophenyl)-amino]methylene]-β-oxobenzenepropionate]
6 | 200 | 81 | CCOC(=O)C(=CNc1ccc(F)cc1)C(=O)c1cccc2ccccc12 [ethyl α-[(4-fluorophenyl)amino]methylene]-β-oxo-1-naphthalenepropionate]
7 | 20 | 95 | C#Cc1ccc(NC=C(C(=O)NCCC)C(=O)c2ccccc2C)cc1 [α-[[(4-ethynylphenyl)amino]methylene]-2-methyl-β-oxo-N-propyl-benzenepropanamide]

— patent US7825278B2, “Substituted enaminones, their derivatives and uses thereof” (The Regents of the University of California, priority 2004, dated 2010)
